Laboratory results taken from US20240116985A1, “STAPLED PEPTIDES AND METHODS THEREOF” (priority 2020, published 2024).
Values joined by “and” are separate entries in the source; they are usually repeats but may differ in a detail not shown here. Identical values can stand only once. Like-named read-outs stand apart in the source and are kept apart here.

Legend:
[1] = target: T1, full-length beta-Catenin (Uniprot ID P35222) (Homo sapiens, UniProt P35222); experiment: Fluorescence polarization IC50 (beta-catenin / 5FAM-TCF4 10-53 competition); format: binding; conditions: read-out: beta-Catenin FP IC50
T1 construct: 10 nM full-length beta-Catenin (Uniprot ID P35222)
T1 sequence (P35222 1-781): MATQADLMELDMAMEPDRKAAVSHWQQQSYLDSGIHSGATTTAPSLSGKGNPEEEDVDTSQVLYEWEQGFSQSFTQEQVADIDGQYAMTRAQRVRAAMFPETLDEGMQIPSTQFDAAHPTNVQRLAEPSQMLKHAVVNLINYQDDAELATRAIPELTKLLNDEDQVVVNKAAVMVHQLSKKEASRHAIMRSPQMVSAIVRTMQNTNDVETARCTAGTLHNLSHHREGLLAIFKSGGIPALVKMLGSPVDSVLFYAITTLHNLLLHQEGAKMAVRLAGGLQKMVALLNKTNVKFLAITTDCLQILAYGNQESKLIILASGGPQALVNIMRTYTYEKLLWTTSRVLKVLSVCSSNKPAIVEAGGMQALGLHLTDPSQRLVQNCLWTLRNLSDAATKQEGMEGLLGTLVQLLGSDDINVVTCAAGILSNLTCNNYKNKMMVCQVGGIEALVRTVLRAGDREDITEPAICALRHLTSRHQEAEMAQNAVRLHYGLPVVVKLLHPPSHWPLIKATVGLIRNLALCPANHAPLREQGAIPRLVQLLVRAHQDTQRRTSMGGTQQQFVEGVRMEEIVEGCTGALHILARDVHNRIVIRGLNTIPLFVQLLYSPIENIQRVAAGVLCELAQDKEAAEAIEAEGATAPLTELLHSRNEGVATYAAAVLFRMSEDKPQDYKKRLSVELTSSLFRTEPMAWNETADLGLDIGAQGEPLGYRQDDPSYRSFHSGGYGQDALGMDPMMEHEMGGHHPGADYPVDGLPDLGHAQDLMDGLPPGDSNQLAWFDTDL

[2] = target: T2, beta-catenin/TCF4 engagement (Homo sapiens, UniProt P35222); experiment: Nano-BRET target engagement assay (B-cat-Halo & TCF4-Luc in HEK293 cells); format: cell-based; conditions: for inhibition at 10 µM: HEK293, 10 uM
T2 construct: expressed in transfected cells; host or cells: HEK293
T2 sequence (P35222 1-781): T1 sequence (P35222 1-781)

[3] = plate row B = 20 uM, integration 0.3 s, reading 1

SMILES: CC(=O)N1CCC[C@]12CC=CCCCC1(CCCC=CCCCOC(=O)N3CC[C@@](C(=O)N[C@@H](Cc4ccsc4)C(=O)N[C@@H](Cc4csc5ccccc45)C(=O)N[C@@H](CCC(N)=O)C(=O)N[C@H](C)C(N)=O)(C3)NC(=O)[C@H](CC(N)=O)NC(=O)[C@H](Cc3ccccc3)NC(=O)[C@H](C)NC(=O)[C@H](C)NC(=O)[C@H](CC(=O)O)NC(=O)[C@H](CC(=O)O)NC1=O)NC(=O)[C@H](CC(C)(C)C)NC(=O)[C@H](CC(=O)O)NC2=O (stereo partly drawn) [I-822, Ac-PL3-Asp-Npg-B5-Asp-Asp-Ala-Ala-Phe-Asn-PyrS2-3Thi-BztA-Gln-dAla-NH2]
- IC50 [1]: 0.006 µM
- BRET % Inhibition ([2]; 0.625 uM, replicates): −32.1% and −5.3% and 6.3%
- BRET % Inhibition ([2]; 1.25 uM, replicates): −6.1% and −18.2% and −25.1%
- BRET % Inhibition ([2]; 2.5 uM, replicates): −23.7% and 8.1% and −9.2%
- BRET % Inhibition ([2]; 5 uM, replicates): 6.8% and −15.3% and 30.1%
- BRET % Inhibition ([2]; 10 uM, replicates): 24.5% and 21.5%
- BRET % Inhibition ([2]; 20 uM, replicates): 52.9% and 40.7% and 71.4%
- inhibition at 10 µM ([2]; read-out: NanoBRET % inh @ 10 uM): 53%
- inhibition at 10 µM ([2]; replicates, read-out: BRET % Inhibition): 35.7%
- BRET Acceptor 600 LP raw reading [2, 3]: 450 and 280
- BRET Donor 450 BP raw reading [2, 3]: 59340 and 52650 and 45840
- BRET Acceptor 600 LP raw reading ([2]; plate row C = 10 uM): 490 and 470
- BRET Donor 450 BP raw reading ([2]; plate row C = 10 uM): 54740 and 47760 and 46640
- BRET Acceptor 600 LP raw reading ([2]; plate row D = 5 uM): 630 and 600 and 430
- BRET Donor 450 BP raw reading ([2]; plate row D = 5 uM): 56000 and 46130 and 45780
- BRET Donor 450 BP raw reading ([2]; plate row E = 2.5 uM): 54130 and 32300 and 33550
- BRET Acceptor 600 LP raw reading ([2]; plate row F = 1.25 uM (plate map)): 470 and 380 and 260
- IC50 ([2]; read-out: NanoBRET Abs IC50): 6.3 µM
- IC50 ([2]; read-out: NanoBRET IC50): 7.7 µM
